Measured values from patent US11004539B2, “Predicting metabolic side effects of transported drugs” (The Regents of the University of California, priority 2016, dated 2021).
Structures can show the parent of a compound that is named as a salt.

Biological target: T1, OAT1 (Mus musculus, UniProt Q8VC69)
T1 sequence (Q8VC69 1-545): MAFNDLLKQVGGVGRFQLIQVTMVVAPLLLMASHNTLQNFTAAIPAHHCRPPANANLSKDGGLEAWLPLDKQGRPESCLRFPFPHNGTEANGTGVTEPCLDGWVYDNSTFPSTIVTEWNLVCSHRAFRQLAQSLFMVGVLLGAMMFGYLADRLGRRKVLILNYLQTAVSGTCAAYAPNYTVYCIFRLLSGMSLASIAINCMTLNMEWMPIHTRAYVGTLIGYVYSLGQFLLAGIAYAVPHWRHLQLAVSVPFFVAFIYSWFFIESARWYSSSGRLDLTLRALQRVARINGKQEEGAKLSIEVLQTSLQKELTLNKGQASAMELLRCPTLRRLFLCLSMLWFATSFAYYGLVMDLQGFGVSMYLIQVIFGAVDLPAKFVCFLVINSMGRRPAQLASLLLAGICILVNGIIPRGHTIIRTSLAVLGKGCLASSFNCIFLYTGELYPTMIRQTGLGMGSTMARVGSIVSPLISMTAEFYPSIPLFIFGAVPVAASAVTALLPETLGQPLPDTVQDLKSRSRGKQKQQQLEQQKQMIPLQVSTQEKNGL
Assay: not given
Settings: not given

IC50 OAT1 | Compound
No inhibition | COc1cc(N)c(Cl)cc1C(=O)NC1CCN(CCCOc2ccc(F)cc2)CC1OC (stereo not drawn) [Cisapride]
No significant | OC(CNCC(O)C1CCc2cc(F)ccc2O1)C1CCc2cc(F)ccc2O1 (stereo not drawn) [Nebivolol]

Biological target: T1, OAT1
Assay: not given
Settings: OAT1 vs OAT3; cited from earlier work

Compound | affinity for OAT1 compared to OAT3, fold less
CN/C(=N/CCSCc1nc[nH]c1C)NC#N [cimetidine] | roughly 10 fold

Biological target: T1, OAT1
Assay: cell-based
Settings: not given

IC50 | Compound
807 µM | NC(=O)C(c1ccccc1)(c1ccccc1)[C@@H]1CCN(CCc2ccc3c(c2)CCO3)C1 [Darifenacin]
1080 µM | Cc1nc2n(c(=O)c1CCN1CCC(c3noc4cc(F)ccc34)CC1)CCCC2O (stereo not drawn) [Paliperidone]

Biological target: T2, OAT3 (Mus musculus, UniProt O88909)
T2 sequence (O88909 1-537): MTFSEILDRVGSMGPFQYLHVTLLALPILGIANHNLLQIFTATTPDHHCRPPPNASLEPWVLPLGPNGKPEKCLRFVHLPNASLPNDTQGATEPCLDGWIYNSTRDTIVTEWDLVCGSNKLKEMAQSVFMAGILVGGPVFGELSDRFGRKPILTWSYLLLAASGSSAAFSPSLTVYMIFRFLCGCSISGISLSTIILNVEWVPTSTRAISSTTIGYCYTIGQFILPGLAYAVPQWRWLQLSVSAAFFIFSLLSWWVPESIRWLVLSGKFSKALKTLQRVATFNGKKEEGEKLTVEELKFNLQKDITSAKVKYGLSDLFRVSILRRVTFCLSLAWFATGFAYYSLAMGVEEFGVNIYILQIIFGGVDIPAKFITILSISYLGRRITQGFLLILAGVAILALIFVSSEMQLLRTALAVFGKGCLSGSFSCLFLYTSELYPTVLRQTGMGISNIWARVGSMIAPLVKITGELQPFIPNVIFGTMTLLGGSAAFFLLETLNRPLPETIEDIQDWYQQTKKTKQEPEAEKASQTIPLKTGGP
Assay: not given
Settings: in vivo

change in plasma of the Oat3KO | Compound
accumulate in the plasma | O=C(O)C(O)Cc1c[nH]c2ccccc12 (stereo not drawn) [indolelactate]

Biological target: T2, OAT3
Assay: cell-based
Settings: not given

IC50 | Compound
198 µM | NC(=O)C(c1ccccc1)(c1ccccc1)[C@@H]1CCN(CCc2ccc3c(c2)CCO3)C1 [Darifenacin]
169 µM | OC(CNCC(O)C1CCc2cc(F)ccc2O1)C1CCc2cc(F)ccc2O1 (stereo not drawn) [Nebivolol]
260 µM | Cc1nc2n(c(=O)c1CCN1CCC(c3noc4cc(F)ccc34)CC1)CCCC2O (stereo not drawn) [Paliperidone]
33 µM | CCCN(CCC)S(=O)(=O)c1ccc(C(=O)O)cc1 [Probenecid]

Compound | IC50
CN(C)C(=O)C(CCN1CCC(O)(c2ccc(Cl)cc2)CC1)(c1ccccc1)c1ccccc1 [Loperamide] | 95 µM

Biological target: T1, OAT1
Assay: Uptake inhibition assay in Oat1-transfected CHO cells (6-carboxyfluorescein tracer)
Assay type: cell-based
Parameters: expressed in transfected cells; host or cells: CHO cells
Settings: read-out: calculated Ki
Experimental: (A) The IC50 curves for the metabolites characterized in the in vitro uptake inhibition assay using CHO stably expressing Oat1. […] (B) The table summarizes the calculated Ki and metabolic pathways the characterized metabolites were involved in.
Oat1-transfected CHO cells cultured on 96-well plates were incubated in the presence of 10 μM 6-carboxyfluorescein with or without individual metabolites (with controls treated with the OAT1 inhibitor probenecid). The IC50 curves for novel ligands were plotted in Prism Software (GraphPad Inc., San Diego, Calif.), and the IC50 values were converted to Ki (inhibition affinity) using the Cheng-Prusoff equation.

Compound | Ki
O=C(O)CCCCCCCCCCCCCCCO [16-hydroxy-hexadecanoic acid] | 13 µM
Nc1nc2c(c(=O)[nH]1)N=C(CNc1ccc(C(=O)N[C@@H](CCC(=O)O)C(=O)O)cc1)CN2 [dihydrofolic acid] | 93 µM
CCCCCC/C=C\CCCCCCCC(=O)O [palmitoleic acid] | 200 µM
CCCCC[C@H](O)/C=C/[C@H]1[C@H](O)CC(=O)[C@@H]1CCCCCCC(=O)O [prostaglandin E1] | 12 µM

Same assay, conditions: set of 8 predicted metabolites tested

Compound | interaction with OAT1 in in vitro assays
O=C(O)CCCCCCCCCCCCCCCO [16-hydroxy-hexadecanoic acid] | directly interacting with OAT1
Nc1nc2c(c(=O)[nH]1)N=C(CNc1ccc(C(=O)N[C@@H](CCC(=O)O)C(=O)O)cc1)CN2 [dihydrofolic acid] | directly interacting with OAT1
CCCCCC/C=C\CCCCCCCC(=O)O [palmitoleic acid] | directly interacting with OAT1
CCCCC[C@H](O)/C=C/[C@H]1[C@H](O)CC(=O)[C@@H]1CCCCCCC(=O)O [prostaglandin E1] | directly interacting with OAT1

Biological target: T2, OAT3
Assay: not given
Settings: OAT3-expressing cells; 5-carboxyfluorescein as fluorescent tracer

Compound | IC50 OAT3
COc1cc(N)c(Cl)cc1C(=O)NC1CCN(CCCOc2ccc(F)cc2)CC1OC (stereo not drawn) [Cisapride] | No ihhibition
CCCCN(CCCC)CCC(O)c1cc2c(Cl)cc(Cl)cc2c2cc(C(F)(F)F)ccc12 (stereo not drawn) [Halofantrine] | No inhibition

Biological target: T2, OAT3
Assay: Plasma metabolomics profiling of Oat3KO versus wild-type mice
Settings: Oat3KO vs wild type mice

Compound | change in plasma of the Oat3KO
CCCCCCCCC(O)C(=O)O (stereo not drawn) [2-hydroxydecanoate] | altered
CCCC(O)CC(=O)O (stereo not drawn) [3-hydroxyhexanoate] | altered
O=S(=O)(O)Oc1c[nH]c2ccccc12 [3-indoxyl sulfate] | accumulate in the plasma
C[C@H](CCC(=O)O)[C@H]1CC[C@H]2[C@@H]3C(=O)C[C@@H]4C[C@H](O)CC[C@]4(C)[C@H]3C[C@H](O)[C@]12C [7-ketodeoxycholate] | significantly increased
CC(=O)N[C@@H](CC(=O)c1ccccc1N)C(=O)O [N-acetylkynurenine] | accumulate in the plasma
CC(=O)N[C@@H](Cc1c[nH]c2ccccc12)C(=O)O [N-acetyltryptophan] | accumulate in the plasma
Cc1ccc(O[C@@H]2O[C@H](C(=O)O)[C@@H](O)[C@H](O)[C@H]2O)cc1 [p-cresol-glucuronide] | significantly increased
O=C(O)CCCCCCCCC(=O)O [sebacate] | altered

Further lines, results first:

change in plasma of the Oat3KO | Compound
accumulate in the plasma | O=C(O)c1c[nH]c2ccccc12 [indole-3-carboxylic acid]
significantly increased | Cc1ccc(OS(=O)(=O)O)cc1 [p-cresol sulfate]
significantly increased | O=S(=O)(O)Oc1ccccc1 [phenol sulfate]
accumulate in the plasma | NCCc1c[nH]c2ccc(O)cc12 [serotonin]
altered | O=C(O)CCCCCCCCCCCCC(=O)O [tetradecanedioate]
significantly increased | C[C@H](CCC(=O)O)[C@H]1CC[C@H]2[C@@H]3[C@@H](O)C[C@@H]4C[C@H](O)CC[C@]4(C)[C@H]3CC[C@]12C [ursodeoxycholate]

Same assay, conditions: Oat3KO vs wild type mice, did not reach statistical significance

increase in plasma of the Oat3KO | Compound
~30 fold | C[C@H](CCC(=O)NCCS(=O)(=O)O)[C@H]1CC[C@H]2[C@@H]3[C@H](O)C[C@@H]4C[C@H](O)CC[C@]4(C)[C@H]3CC[C@]12C [taurochenodeoxycholate]

Same assay, conditions: Oat3KO vs wild type mice, significantly altered

increase in plasma of the Oat3KO | Compound
over 24 fold | C[C@H](CCC(=O)O)[C@H]1CC[C@H]2[C@@H]3[C@@H](O)[C@@H](O)[C@@H]4C[C@H](O)CC[C@]4(C)[C@H]3CC[C@]12C [beta-muricholate]
~160 fold | C[C@H](CCC(=O)O)[C@H]1CC[C@H]2[C@@H]3[C@H](O)C[C@@H]4C[C@H](O)CC[C@]4(C)[C@H]3C[C@H](O)[C@]12C [cholate]
more than 42 fold | equol glucuronide
more than 7 fold | equol sulfate

Same assay, conditions: Oat3KO vs wild type mice, statistical significance not achieved

change in plasma of the Oat3KO | Compound
increased | C[C@H](CCC(=O)O)[C@H]1CC[C@H]2[C@@H]3[C@H](O)C[C@@H]4C[C@H](O)CC[C@]4(C)[C@H]3CC[C@]12C [chenodeoxycholate]
increased | C[C@H](CCC(=O)NCC(=O)O)[C@H]1CC[C@H]2[C@@H]3[C@H](O)C[C@@H]4C[C@H](O)CC[C@]4(C)[C@H]3C[C@H](O)[C@]12C [glycocholate]
increased | C[C@H](CCC(=O)NCCS(=O)(=O)O)[C@H]1CC[C@H]2[C@@H]3[C@@H](O)[C@@H](O)[C@@H]4C[C@H](O)CC[C@]4(C)[C@H]3CC[C@]12C [tauro-beta-muricholate]
increased over ten-fold | C[C@H](CCC(=O)NCCS(=O)(=O)O)[C@H]1CC[C@H]2[C@@H]3CC[C@@H]4C[C@H](O)CC[C@]4(C)[C@H]3C[C@H](O)[C@]12C [taurodeoxycholate]
increased over ten-fold | C[C@H](CCC(=O)NCCS(=O)(=O)[O-])[C@H]1CC[C@H]2[C@@H]3C[C@H](O)[C@@H]4C[C@H](O)CC[C@]4(C)[C@H]3CC[C@]12C.[Na+] [taurohyodeoxycholic acid]
increased over ten-fold | C[C@H](CCC(=O)NCCS(=O)(=O)O)[C@H]1CC[C@H]2[C@@H]3[C@@H](O)C[C@@H]4C[C@H](O)CC[C@]4(C)[C@H]3CC[C@]12C [tauroursodeoxycholate]

Biological target: T1, OAT1
Assay: Uptake inhibition assay, CHO cells constitutively expressing mouse Oat1
Settings: 6-carboxyfluorescein as fluorescent tracer

Compound | IC50 OAT1
CCCCN(CCCC)CCC(O)c1cc2c(Cl)cc(Cl)cc2c2cc(C(F)(F)F)ccc12 (stereo not drawn) [Halofantrine] | No inhibition
CN(C)C(=O)C(CCN1CCC(O)(c2ccc(Cl)cc2)CC1)(c1ccccc1)c1ccccc1 [Loperamide] | No significant
